Source: US4473579A, “Antiatherosclerotic tetrasubstituted ureas and thioureas” (American Cyanamid Company, priority 1982, dated 1984)

Columns and labels:
[1] = target: T1, fatty acyl CoA:cholesterol acyl transferase (ACAT) (Rattus norvegicus, UniProt O70536); test: In vitro inhibition of fatty acyl CoA:cholesterol acyl transferase (ACAT), rat adrenal supernatant; type: biochemical; details: test compound final concentration 5.2 g./ml. (so in the source), pH 7.4, 37° C., 10 minutes
T1 construct: Rat adrenals were homogenized in 0.2M monobasic potassium phosphate buffer; from tissue; host or cells: rat adrenals, 1000 x g supernatant containing the microsomal fraction
T1 sequence (O70536 1-545): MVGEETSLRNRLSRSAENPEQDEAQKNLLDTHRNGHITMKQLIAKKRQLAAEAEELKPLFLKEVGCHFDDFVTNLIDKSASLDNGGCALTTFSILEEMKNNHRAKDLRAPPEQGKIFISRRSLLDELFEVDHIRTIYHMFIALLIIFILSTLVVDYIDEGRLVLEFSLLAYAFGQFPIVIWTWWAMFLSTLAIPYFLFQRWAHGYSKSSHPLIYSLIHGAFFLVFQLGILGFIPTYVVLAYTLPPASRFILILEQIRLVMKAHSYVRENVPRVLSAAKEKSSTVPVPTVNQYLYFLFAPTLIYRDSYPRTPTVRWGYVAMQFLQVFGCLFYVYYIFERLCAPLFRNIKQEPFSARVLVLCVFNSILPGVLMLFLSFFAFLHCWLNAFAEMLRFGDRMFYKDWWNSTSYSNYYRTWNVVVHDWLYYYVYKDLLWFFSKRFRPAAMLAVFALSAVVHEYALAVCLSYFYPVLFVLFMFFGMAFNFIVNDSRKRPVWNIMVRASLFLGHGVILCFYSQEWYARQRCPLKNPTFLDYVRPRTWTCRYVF
Experimental: (§1) The compounds of the present invention were assayed for two types of biological activity related to their potential use as antiatherosclerotic agents. Compounds were tested in vitro for their ability to inhibit the enzyme fatty acyl CoA:cholesterol acyl transferase (ACAT) and in vivo for serum hypolipidemic activity as measured by their ability to inhibit lipid absorption in rats. The compounds were tested for their ability to inhibit ACAT according to the following procedure:
Rat adrenals were homogenized in 0.2M monobasic potassium phosphate buffer, pH 7.4, and centrifuged at 1000 times gravity for 15 minutes at 5° C. The supernatant, containing the microsomal fraction, served as the source of the cholesterol-esterifying enzyme, fatty acyl CoA:cholesterol acyl transferase (ACAT). A mixture comprising 50 parts of adrenal supernatant, 10 parts of albumin (BSA) (50 mg./ml.), 3 parts of test compound (final concentration […].) and 500 parts of buffer was preincubated at 37° C. for 10 minutes. After treatment with 20 parts of oleoyl CoA(^14 C-[…]) the mixture was incubated at 37° C. for 10 minutes. A control mixture, omitting the test compound, was prepared and treated in the same manner. The lipids from the incubation mixture were extracted into an organic solvent and separated by thin-layer chromatography. The cholesteryl ester fraction was counted in a scintillation counter. This procedure is a modification of that described by Hashimoto, et al., Life Scie., 12 (Part II), 1-12 (1973).

cholesterol absorption = test: Inhibition of cholesterol absorption in cholesterol/cholic acid fed rats (serum or liver cholesterol lowering); type: in vivo, male Sprague-Dawley rats; details: 0.03% of the diet; 1% cholesterol: 0.5% cholic acid diet for 2 weeks; lowering of serum or liver cholesterol relative to control rats
Experimental: as §1
Inhibition of cholesterol absorption was determined by feeding male Sprague-Dawley rats, weighing 150-170 g., a 1% cholesterol: 0.5% cholic acid diet for 2 weeks. The diet was contained compounds being tested at a dose of 0.03% of the diet. Control rats were fed the same diet without any compound. At the end of the test, the rats were sacrificed by decapitation. Blood is collected, centrifuged at 1.5 kg times gravity for 10 minutes at 4° C., and the serum is then analyzed for cholesterol and triglycerides enzymatically by the method of Trinder, P., Analyst, 77, 321 (1952) on a Centrifichem 400 Analyzer. […] The resulting neutral sterols are extracted with petroleum ether and extract analyzed for cholesterol. The effectiveness of the compound in inhibiting cholesterol absorption is measured by the lowering of either serum cholesterol or liver cholesterol relative the values for control rats.

Structure (SMILES)	% Inhibition (ACAT) [1] [%]	Result (inhibition of cholesterol absorption) (cholesterol absorption)
CCCCN(Cc1ccccc1)C(=O)N(CCCC)Cc1ccccc1 [1,3-Dibenzyl-1,3-di-(n-butyl)urea]	95.4	–
CCCCN(Cc1ccccc1)C(=O)N(Cc1ccccc1)c1ccccc1 [1,3-Dibenzyl-1-(n-butyl)-3-phenylurea]	81.8	–
CCCCN(Cc1ccccc1)C(=O)N(c1ccc2ccccc2c1)c1ccc2ccccc2c1 [1-Benzyl-1-(n-butyl)-3,3-di(2-naphthyl)urea]	93.2	–
CCCCN(Cc1ccccc1)C(=O)N(c1ccccc1)c1ccccc1 [1-Benzyl-1-(n-butyl)-3,3-diphenylurea]	75.9	–
CCCCN(Cc1ccccc1)C(=O)N(c1ccccc1)c1cccc2ccccc12 [1-Benzyl-1-(n-butyl)-3-(1-naphthyl)-3-phenylurea]	76.3	–
CCCCN(Cc1ccccc1)C(=O)N(c1ccccc1)c1ccc2ccccc2c1 [1-Benzyl-1-(n-butyl)-3-(2-naphthyl)-3-phenylurea]	83.6	–
CCCCN(Cc1ccccc1)C(=O)N(c1cccc(Cl)c1)c1ccc2ccccc2c1 [1-Benzyl-1-(n-butyl)-3-(3-chlorophenyl)-3-(2-naphthyl)urea]	82.7	–
CCCCN(Cc1ccccc1)C(=O)N(c1ccccc1)c1cccc(Cl)c1 [1-Benzyl-1-(n-butyl)-3-(3-chlorophenyl)-3-phenylurea]	72.3	–
CCCCN(Cc1ccccc1)C(=O)N(c1ccccc1)c1cccc(OC)c1 [1-Benzyl-1-(n-butyl)-3-(3-methoxyphenyl)-3-phenylurea]	82.5	Active
CCCCN(Cc1ccccc1)C(=O)N(c1ccccc1)c1cccc(C)c1 [1-Benzyl-1-(n-butyl)-3-(3-methylphenyl)-3-phenylurea]	82.0	–
CCCCN(Cc1ccccc1)C(=O)N(c1ccccc1)c1ccc(OC(C)C)cc1 [1-Benzyl-1-(n-butyl)-3-(4-isopropoxyphenyl)-3-phenylurea]	77.8	–
